Experimental data taken from US20250144094A1 (Erasca, Inc., priority 2021, published 2025).

Target: Recombinant human ULK1 (1-649) (Homo sapiens (Human), UniProt O75385)
Test: ULK1 ADP Glo kinase activity assay (MBP substrate)
Settings: 25° C., 40 minutes, read-out: ULK1 biochemical IC50
Outline: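 GST-tagged ULK1 (1-649) from Sf9 cells phosphorylated MBP, with ATP, for 40 min at 25 °C across a 12-point series from 10 uM. ADP formed was quantified by ADP-Glo luminescence against DMSO controls. IC50 came from a four-parameter variable-slope fit of log concentration.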

Recombinant human ULK1 (1-649), sequence (O75385 1-649): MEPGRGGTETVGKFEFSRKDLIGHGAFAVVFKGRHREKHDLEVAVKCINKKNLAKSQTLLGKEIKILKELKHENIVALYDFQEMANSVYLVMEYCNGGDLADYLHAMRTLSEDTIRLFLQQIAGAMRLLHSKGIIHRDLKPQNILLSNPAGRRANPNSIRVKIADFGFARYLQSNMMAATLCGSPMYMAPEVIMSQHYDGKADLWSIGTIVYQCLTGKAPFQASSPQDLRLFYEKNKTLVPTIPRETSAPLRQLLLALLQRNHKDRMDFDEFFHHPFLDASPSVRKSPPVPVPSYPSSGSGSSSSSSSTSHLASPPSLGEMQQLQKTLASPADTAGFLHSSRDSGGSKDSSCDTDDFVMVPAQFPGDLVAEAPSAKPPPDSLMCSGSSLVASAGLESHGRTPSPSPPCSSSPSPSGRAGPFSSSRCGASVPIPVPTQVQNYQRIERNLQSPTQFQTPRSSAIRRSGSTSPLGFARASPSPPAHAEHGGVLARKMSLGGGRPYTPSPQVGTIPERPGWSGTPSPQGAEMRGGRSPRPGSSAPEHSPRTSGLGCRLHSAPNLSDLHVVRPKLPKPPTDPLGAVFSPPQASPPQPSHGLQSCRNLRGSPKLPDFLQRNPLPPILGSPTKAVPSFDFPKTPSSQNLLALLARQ

SMILES	IC50
CS(=O)(=O)c1csc(-c2nc(Nc3cc(C4CNC4)ccc3Cl)ncc2C(F)(F)F)c1 [Example 121, N-(5-(azetidin-3-yl)-2-chlorophenyl)-4-(4-(methylsulfonyl)thiophen-2-yl)-5-(trifluoromethyl)pyrimidin-2-amine]	50 to 100 nM
CN1CC(c2ccc(Cl)c(Nc3ncc(C(F)(F)F)c(-c4cc(S(C)(=O)=O)cs4)n3)c2)C1 [Example 122, N-(2-chloro-5-(1-methylazetidin-3-yl)phenyl)-4-(4-(methylsulfonyl)thiophen-2-yl)-5-(trifluoromethyl)pyrimidin-2-amine]	100 to 500 nM
Cc1nn(C2CNC2)cc1Nc1ncc(C(F)(F)F)c(-c2cc(S(C)(=O)=O)cs2)n1 [Example 123, N-(1-(azetidin-3-yl)-3-methyl-1H-pyrazol-4-yl)-4-(4-(methylsulfonyl)thiophen-2-yl)-5-(trifluoromethyl)pyrimidin-2-amine]	10 to 50 nM
Cc1nn(C2CN(C)C2)cc1Nc1ncc(C(F)(F)F)c(-c2cc(S(C)(=O)=O)cs2)n1 [Example 124, N-(3-methyl-1-(1-methylazetidin-3-yl)-1H-pyrazol-4-yl)-4-(4-(methylsulfonyl)thiophen-2-yl)-5-(trifluoromethyl)pyrimidin-2-amine]	100 to 500 nM
O=C1NCCS(=O)(=O)c2cc(-c3nc(Nc4cc5c(cc4Cl)CN(CC(F)(F)F)CC5)ncc3C(F)(F)F)sc21 [Example 125, 7-(2-((7-chloro-2-(2,2,2-trifluoroethyl)-1,2,3,4-tetrahydroisoquinolin-6-yl)amino)-5-(trifluoromethyl)pyrimidin-4-yl)-3,4-dihydrothieno[2,3-f][1,4]thiazepin-5(2H)-one 1,1-dioxide]	100 to 500 nM
O=C1NCCS(=O)(=O)c2cc(-c3nc(Nc4cc5c(cc4Cl)CN(C4CC4)CC5)ncc3C(F)(F)F)sc21 [Example 126, 7-(2-((7-chloro-2-cyclopropyl-1,2,3,4-tetrahydroisoquinolin-6-yl)amino)-5-(trifluoromethyl)pyrimidin-4-yl)-3,4-dihydrothieno[2,3-f][1,4]thiazepin-5(2H)-one 1,1-dioxide]	10 to 50 nM
CS(=O)(=O)c1csc(-c2nc(Nc3cc4c(cc3Cl)CNCCC4)ncc2C(F)(F)F)c1 [Example 127, 8-chloro-N-(4-(4-(methylsulfonyl)thiophen-2-yl)-5-(trifluoromethyl)pyrimidin-2-yl)-2,3,4,5-tetrahydro-1H-benzo[c]azepin-7-amine]	≤ 10 nM
CS(=O)(=O)c1csc(-c2nc(Nc3cn(C4CCNCC4)nc3C3CC3)ncc2C(F)(F)F)c1 [Example 128, N-(3-Cyclopropyl-1-(piperidin-4-yl)-1H-pyrazol-4-yl)-4-(4-(methylsulfonyl)thiophen-2-yl)-5-(trifluoromethyl)pyrimidin-2-amine]	≤ 10 nM
CN1CCC(n2cc(Nc3ncc(C(F)(F)F)c(-c4cc(S(C)(=O)=O)cs4)n3)c(C3CC3)n2)CC1 [Example 129, N-(3-cyclopropyl-1-(1-methylpiperidin-4-yl)-1H-pyrazol-4-yl)-4-(4-(methylsulfonyl)thiophen-2-yl)-5-(trifluoromethyl)pyrimidin-2-amine]	≤ 10 nM
CS(=O)(=O)c1csc(-c2nc(Nc3cc4c(cc3C3CC3)CNC4)ncc2C(F)(F)F)c1 [Example 131, 6-cyclopropyl-N-(4-(4-(methylsulfonyl)thiophen-2-yl)-5-(trifluoromethyl)pyrimidin-2-yl)isoindolin-5-amine]	≤ 10 nM
CS(=O)(=O)c1csc(-c2nc(Nc3cc4c(cc3C3CC3)CNCC4)ncc2C(F)(F)F)c1 [Example 132, 7-cyclopropyl-N-(4-(4-(methylsulfonyl)thiophen-2-yl)-5-(trifluoromethyl)pyrimidin-2-yl)-1,2,3,4-tetrahydroisoquinolin-6-amine]	≤ 10 nM
CN1CCCc2cc(Nc3ncc(C(F)(F)F)c(-c4cc(S(C)(=O)=O)cs4)n3)c(Cl)cc2C1 [Example 133, 8-chloro-2-methyl-N-(4-(4-(methylsulfonyl)thiophen-2-yl)-5-(trifluoromethyl)pyrimidin-2-yl)-2,3,4,5-tetrahydro-1H-benzo[c]azepin-7-amine]	≤ 10 nM
CCN1CCS(=O)(=O)c2cc(-c3nc(Nc4cc5c(cc4Cl)CNCC5)ncc3C(F)(F)F)sc2C1=O [Example 135, 7-(2-((7-chloro-1,2,3,4-tetrahydroisoquinolin-6-yl)amino)-5-(trifluoromethyl)pyrimidin-4-yl)-4-ethyl-3,4-dihydrothieno[2,3-f][1,4]thiazepin-5(2H)-one 1,1-dioxide]	≤ 10 nM
O=C1NCCOc2sc(-c3nc(Nc4cc5c(cc4Cl)CN(C(=O)C(F)(F)F)CC5)ncc3C(F)(F)F)cc21 [compound 70]	10 to 50 nM
CS(=O)(=O)c1cc(-c2nc(Nc3cc4c(cc3Cl)CN(C(=O)C(F)(F)F)CC4)ncc2C(F)(F)F)sc1C1=CCOCC1 [compound 74]	> 500 nM
